From US20230295234A1, “ANTIMICROBIAL PEPTIDOMIMETICS” (SPEXIS AG, priority 2020, published 2023)
Bridge positions count the residues as written; N and C are the ends. Square brackets hold non-standard residues; d marks the D form. Peptide text beside a SMILES is read from it. Gly(N-2-aminoethyl) = NCCNCC(=O)O; Gly(N(CH2)3NH2) = NCCCNCC(=O)O; Pen = CC(C)(S)[C@H](N)C(=O)O; dDab = NCC[C@@H](N)C(=O)O; Nle = CCCC[C@H](N)C(=O)O; Orn = NCCC[C@H](N)C(=O)O; Dab = NCC[C@H](N)C(=O)O

Assays:
[1] = test system: Escherichia coli ATCC 25922; details: ATCC 25922
How it was run: (§1)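 Broth microdilution; cation-adjusted MHII; inoculum ~5×10^5 CFU/mL from 0.5 McFarland saline suspension; peptide two-fold serial dilutions; polysorbate 80 0.002% final; peptide stock 1 mg/mL in water.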

[2] = test system: Escherichia coli MCR-1 Af 45; details: MCR-1 Af 45
How it was run: as §1

[3] = test system: Klebsiella pneumoniae SSI3010; details: SSI3010
How it was run: as §1

[4] = test system: human red blood cells (hRBC); test: Hemolysis of human red blood cells; type: cell-based; details: red cells of human, 1 h
How it was run: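 PBS-washed human red blood cells (20% v/v) were incubated with peptide at 200 μg/mL for 1 h at 37 °C with shaking. Supernatant OD was read at 540 nm after 8-fold dilution. Hemolysis is expressed as percent of the water control.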

| SMILES | Escherichia coli ATCC 25922 MIC [1] | Escherichia coli MCR-1 Af 45 MIC [2] | Klebsiella pneumoniae SSI3010 MIC [3] | Hemolysis at 0.2 g/L [4] |
| --- | --- | --- | --- | --- |
| CCCC[C@H](NC(=O)[C@H](CCCNC(=N)N)NC(=O)[C@H](CCN)NC(=O)[C@@H]1CSSC(C)(C)[C@H](NC(=O)[C@H](Cc2ccc(O)cc2)NC(=O)[C@@H](NC(=O)[C@@H](NC(=O)CN(CCN)C(=O)[C@@H](NC(=O)CNCCN)C(C)C)[C@@H](C)CC)[C@@H](C)O)C(=O)N[C@@H](CC(N)=O)C(=O)N[C@@H](CCCNC(=N)N)C(=O)N[C@@H](CCN)C(=O)N[C@@H]([C@@H](C)O)C(=O)N[C@H](CCN)C(=O)N[C@@H](CCCCN)C(=O)N1)C(=O)O [Example 12, Ndab-Val-Ndab-Ile-Thr-Tyr-Pen-Asn-Arg-Dab-Thr-^DDab-Lys-Cys-Dab-Arg-Nle] (H-[Gly(N-2-aminoethyl)]V[Gly(N-2-aminoethyl)]ITY[Pen]NR[Dab]T[dDab]KC[Dab]R[Nle]-OH; disulfide 7-14) | 0.25 µg/mL | 0.0625 µg/mL | 0.25 µg/mL | 0% |
| CCCC[C@H](NC(=O)[C@H](CCCNC(=N)N)NC(=O)[C@H](CCN)NC(=O)[C@@H]1CSSC(C)(C)[C@H](NC(=O)[C@H](Cc2ccc(O)cc2)NC(=O)[C@@H](NC(=O)[C@@H](NC(=O)CN(CCN)C(=O)[C@@H](NC(=O)CNCCN)C(C)C)[C@@H](C)CC)[C@@H](C)CC)C(=O)N[C@@H](CC(N)=O)C(=O)N[C@@H](CCCNC(=N)N)C(=O)N[C@@H](CCN)C(=O)N[C@@H]([C@@H](C)O)C(=O)N[C@H](CCN)C(=O)N[C@@H](CCCCN)C(=O)N1)C(=O)O [Example 13, Ndab-Val-Ndab-Ile-Ile-Tyr-Pen-Asn-Arg-Dab-Thr-^DDab-Lys-Cys-Dab-Arg-Nle] (H-[Gly(N-2-aminoethyl)]V[Gly(N-2-aminoethyl)]IIY[Pen]NR[Dab]T[dDab]KC[Dab]R[Nle]-OH; disulfide 7-14) | 0.125 µg/mL | 0.125 µg/mL | 0.25 µg/mL | 0% |
| CCCC[C@H](NC(=O)[C@H](CCCNC(=N)N)NC(=O)[C@H](CCN)NC(=O)[C@@H]1CSSC(C)(C)[C@H](NC(=O)[C@H](Cc2ccc(O)cc2)NC(=O)[C@@H](NC(=O)[C@@H](NC(=O)CN(CCCN)C(=O)[C@@H](NC(=O)CNCCCN)C(C)C)[C@@H](C)CC)[C@@H](C)CC)C(=O)N[C@@H](CC(N)=O)C(=O)N[C@@H](CCCNC(=N)N)C(=O)N[C@@H](CCN)C(=O)N[C@@H]([C@@H](C)O)C(=O)N[C@H](CCN)C(=O)N[C@@H](CCCCN)C(=O)N1)C(=O)O [Example 14, Norn-Val-Norn-Ile-Ile-Tyr-Pen-Asn-Arg-Dab-Thr-^DDab-Lys-Cys-Dab-Arg-Nle] (H-[Gly(N(CH2)3NH2)]V[Gly(N(CH2)3NH2)]IIY[Pen]NR[Dab]T[dDab]KC[Dab]R[Nle]-OH; disulfide 7-14) | 0.25 µg/mL | 0.25 µg/mL | 0.25 µg/mL | 0% |
| CCCC[C@H](NC(=O)[C@H](CCCNC(=N)N)NC(=O)[C@H](CCCN)NC(=O)[C@@H]1CSSC(C)(C)[C@H](NC(=O)[C@H](Cc2ccc(O)cc2)NC(=O)[C@@H](NC(=O)[C@@H](NC(=O)CN(CCN)C(=O)[C@@H](NC(=O)CNCCN)C(C)C)[C@@H](C)CC)[C@@H](C)CC)C(=O)N[C@@H](CC(N)=O)C(=O)N[C@@H](CCCNC(=N)N)C(=O)N[C@@H](CCN)C(=O)N[C@@H]([C@@H](C)O)C(=O)N[C@H](CCN)C(=O)N[C@@H](CCCCN)C(=O)N1)C(=O)O [Example 15, Ndab-Val-Ndab-Ile-Ile-Tyr-Pen-Asn-Arg-Dab-Thr-^DDab-Lys-Cys-Orn-Arg-Nle] (H-[Gly(N-2-aminoethyl)]V[Gly(N-2-aminoethyl)]IIY[Pen]NR[Dab]T[dDab]KC[Orn]R[Nle]-OH; disulfide 7-14) | 0.125 µg/mL | 0.125 µg/mL | 0.25 µg/mL | 0% |
